# Source: patent publication US20150315218A1, “SALTS OF PRODRUGS OF PIPERAZINE AND SUBSTITUTED PIPERIDINE ANTIVIRAL AGENTS” (Bristol-Myers Squibb Company, priority 2004, published 2015)
# Where a name gives a salt, the structure may show the parent alone.
# How the values were obtained:
# [1] = Stability (hydrolysis) of prodrug in fresh serum (monkey); conditions: Ibb in fresh monkey serum, 37° C., n = 2
# Description: (§2) The stability of Iab was studied in fresh blood and serum from rat, dog, monkey and human (n=2). The blood was collected in vacutainers containing K2EDTA (Becton Dickinson, Franklin Lakes, N.J.). The serum was collected in vacutainers containing no anticoagulant. Iab was incubated at a starting concentration of approximately 10 μM for 60-90 min at 37° C. Serial samples were taken at the pre-determined times. Aliquots of blood samples (200 μL) were first mixed with 100 μL of water followed by 400 μL of acetonitrile. The serum samples (50 μL) were added into microtainers containing K2EDTA (Becton Dickinson, Franklin Lakes, N.J.) followed by the addition of 100 μL of acetonitrile. The supernatant was analyzed for both Iab and IVa by LC/MS/MS. The stability of Ibb was studied in fresh blood and serum from rat, dog, monkey and human (n=2). The blood was collected in vacutainers containing K2EDTA (Becton Dickinson, Franklin Lakes, N.J.). The serum was collected in vacutainers containing no anticoagulant. Ibb was incubated at a starting concentration of approximately 15 μM for 90 min at 37° C. Serial samples were taken at the pre-determined times. Aliquots of blood samples (200 μL) were first mixed with 100 μL of water followed by 400 μL of acetonitrile. The serum samples (50 μL) were added into microtainers containing K2EDTA (Becton Dickinson, Franklin Lakes, N.J.) followed by the addition of 100 μL of acetonitrile. […] The stability of Icb was studied in fresh blood and serum from rat, dog, monkey and human (n=2). The blood was collected in vacutainers containing K2EDTA (Becton Dickinson, Franklin Lakes, N.J.). The serum was collected in vacutainers containing no anticoagulant. Icb was incubated at a starting concentration of approximately 10 μM for 90 min at 37° C. Serial samples were taken at the pre-determined times. Aliquots of blood samples (200 μL) were first mixed with 100 μL of water followed by 400 μL of acetonitrile. The serum samples (50 μL) were added into microtainers containing K2EDTA (Becton Dickinson, Franklin Lakes, N.J.) followed by the addition of 100 μL of acetonitrile.
# [2] = Stability (hydrolysis) of prodrug in fresh serum (human); conditions: Ibb in fresh human serum, 37° C., n = 2
# monkey hepatocytes = assay: Hydrolysis of prodrug in hepatocytes (monkey); format: in vitro ADME; conditions: monkey hepatocytes, qualitative
# Description: (§1) The in vitro intrinsic clearance of Ibb in hepatocytes (Clint) was calculated as follows: Clint(μL/min/million cells)=Rate/CE where Rate is the rate of metabolism in hepatocytes (pmol/min/million cells), and CE is the concentration of Ibb in the incubation. The in vitro intrinsic clearance of Icb in hepatocytes (Clint) was calculated as follows: Clint(μL/min/million cells)=Rate/CE where Rate is the rate of metabolism in hepatocytes (pmol/min/million cells), and CE is the concentration of Icb in the incubation.
# physchem = conditions: aqueous solution (pH range 1.5 to 8.7), aqueous buffer, thermodynamic from solid
# [3] = Stability of prodrug in fresh EDTA blood (rat); conditions: for Ibb: Ibb in fresh rat EDTA blood, 37° C., n = 2
# Description: as §2
# [4] = Stability (hydrolysis) of prodrug in fresh serum (dog); conditions: Ibb in fresh dog serum, 37° C., n = 2
# Description: as §2
# dog hepatocytes = assay: Hydrolysis of prodrug in hepatocytes (dog); format: in vitro ADME; conditions: dog hepatocytes, qualitative
# Description: as §1
smiles,measurement,setting,value
"O=C(C(=O)N1CCN(C(=O)c2ccccc2)CC1)c1cn(COP(=O)(O)O)c2c(-n3ccnn3)ncc(F)c12 [Ibb, [3-[(4-benzoylpiperazin-1-yl)(oxo)acetyl]-4-fluoro-7-(1H-1,2,3-triazol-1-yl)-1H-pyrrolo[2,3-c]pyridin-1-yl]methyl dihydrogen phosphate, L-lysine salt (1:1)]",Ibb,[1]; 0 min,14 µM
same,Ibb,[1]; 15 min,6.6 µM
same,Ibb,[1]; 30 min,3.1 µM
same,Ibb,[1]; 45 min,1.7 µM
same,Ibb,[1]; 60 min,0.85 µM
same,Ibb,[1]; 90 min,0.22 µM
same,Ibb,[2]; 0 min,13 µM
same,Ibb,[2]; 15 min,9.0 µM
same,Ibb,[2]; 30 min,10 µM
same,Ibb,[2]; 45 min,10 µM
same,Ibb,[2]; 60 min,8.0 µM
same,Ibb,[2]; 90 min,6.5 µM
same,hydrolysis in the presence of hepatocytes,monkey hepatocytes,No turnover was observed
same,solubility,physchem,> 11 mg/mL
same,Ibb,[3]; 0 min,15 µM
same,Ibb,[3]; 15 min,15 µM
same,Ibb,[3]; 30 min,18 µM
same,Ibb,[3]; 45 min,15 µM
same,Ibb,[3]; 60 min,16 µM
same,Ibb,[3]; 90 min,17 µM
same,conversion of prodrug to parent in blood containing EDTA,"[3]; rat blood, 37°C, 60 min (Iab) or 90 min (Ibb, Icb)",< 2%
same,Ibb,[4]; 0 min,13 µM
same,Ibb,[4]; 15 min,12 µM
same,Ibb,[4]; 30 min,11 µM
same,Ibb,[4]; 45 min,10 µM
same,Ibb,[4]; 60 min,10 µM
same,Ibb,[4]; 90 min,8.9 µM
same,hydrolysis in the presence of hepatocytes,dog hepatocytes,hydrolyzed
